Data on two compounds can be found in patent US20240148679A1, “METHODS AND COMPOSITIONS RELATED TO TREATMENT AND PREVENTION OF CANCER BY INHIBITION OF DGAT1 AND DGAT2” (Ohio State Innovation Foundation, priority 2019, published 2024).

For test [1], the system named is GBM cells (U251). Kind of test: Seahorse analysis of OCR and ECAR. To be noted: 20 μg/ml for 24 hours; for oxygen consumption rate (OCR): vs control cells. The format is cell-based, human. As to the method: (A, B) Transmission electron microscopy (TEM) analysis of the mitochondrial morphology in GBM cells (U251) treated with the DGAT1 inhibitor A-922500 (20 μg/ml) or DGAT2 inhibitor PF-06424439 (20 μg/ml) for 24 hr and shown in a or infected with shRNA-expressing lentivirus against DGAT1 for 48 hr and shown in b. Scale bar, 500 nm. Mitochondria are indicated by red arrows. Mitochondria length and loss of cristae (%) were quantified by ImageJ over 100 mitochondria in each group (mean±SEM). Statistical significance was determined by one-way ANOVA. * P<0.0001. (C, D) Representative fluorescence images of LDs (green) and mitochondria (red) in U251 cells treated with DGAT1 or DGAT2 inhibitor and shown in c or shRNA in (D) as in panels (A, B). LDs were stained with BODIPY 493/503 (green) and mitochondria were stained with MitoTracker Red. Nuclei were stained with Hoechst 33342 (blue). Scale bar, m. The percentage of cells with tubular or fragmented mitochondria was quantified by ImageJ in more than 100 cells (mean±SEM). Statistical significance was determined by one-way ANOVA. * P<0.001. (E, F) Analysis of mitochondrial activity by measuring oxygen consumption rate (OCR) in U251 cells treated with DGAT1/DGAT2 inhibitors or shRNA as in panels (A, B). Lower panels show the quantification of relative basal and maximal OCR change (details please see Methods). Data represent the mean±SD from 3 independent experiments. Basal OCR was determined as OCR before oligomycin subtract OCR after rotenone addition, and maximal OCR was determined as OCR after FCCP subtract OCR after rotenone addition. Statistical significance was determined by one-way ANOVA. * P<0.0001. (G, H) Representative fluorescence images of reactive oxygen species (ROS) production and mitochondria (green) in U251 cells treated with DGAT1/DGAT2 inhibitors or shRNA as in panels (A, B). ROS were detected with CellROX Deep Red, and mitochondria were stained with MitoTracker Green. Nuclei were stained with Hoechst 33342 (blue). Scale bar, 10 m. ROS levels were quantified by ImageJ in more than 100 cells (mean±SD). Statistical significance was determined by one-way ANOVA. * P<0.0001. (I, J) Representative fluorescence images of ROS levels (red) detected by CellROX Deep Red in U251 cells treated with the DGAT1 inhibitor or shRNA as in panels a and b in the presence or absence of N-acetyl-cysteine (NAC, 1 mM). Nuclei were stained with Hoechst 33342 (blue). Scale bar, 10 m. ROS levels were quantified by ImageJ in more than 100 cells (mean±SD) (right upper panels). Live and dead cells were counted by trypan blue staining after treatment for 3 days (mean±SD, n=3) (right bottom panels). Statistical significance was determined by one-way ANOVA. * P<0.0001. […]

For test [2], the system named is BIP and CHOP. Put plainly: Western blot of ER stress markers. The settings on record: 20 μg/ml, 24 hours, GBM cells. Type of test: cell-based, human. On the procedure:
(A) Western blotting analysis of ER stress protein markers BIP and CHOP expression in GBM cells treated with the DGAT1 inhibitor A-922500 (20 μg/ml) for 24 hr. (B) Percentage of cell death in U251 cells treated with the ER stress pathway PERK inhibitor GSK2656157 or IRE1a inhibitor 4μ8C, alone or in combination with the DGAT1 inhibitor A-922500 (20 μg/ml) for 3 days. […] (C) Western blotting analysis of expression of ER stress protein markers BIP and CHOP in GBM cells infected with shRNA-expressing lentivirus against DGAT1 for 48 hr.
Western Blotting Cells were lysed by RIPA buffer (Cat #NC9484499; Fisher Scientific) containing protease inhibitor cocktail (Cat #11836170001; Roche) and phosphatase inhibitor (Cat #04906845001; Roche). The proteins were separated by using 12% SDS-PAGE, and transferred onto a Hybond ECL nitrocellulose membrane (Cat #RPN3032D; GE Healthcare).
After blocking for 1.5 h in 5% nonfat milk diluted by Tris-buffered saline containing 0.1% Tween 20, the membranes were incubated with various primary antibodies, followed by secondary antibodies conjugated to horseradish peroxidase.
(In general: Immunoblotting shows a protein as a band on a membrane.)

With `O=C(Nc1ccccc1)Nc1ccc(-c2ccc(C(=O)[C@@H]3CCC[C@H]3C(=O)O)cc2)cc1` [A-922500], the “extracellular acidification rate (ECAR)” value in test [1] is “did not affect”. Moreover, the “oxygen consumption rate (OCR)” value in test [1] was “markedly reduced”. Also, the “protein levels of BIP and CHOP (ER stress)” value in test [2] is on record as “induces ER stress”; in test [2] (listed as A922500), “increased”.
With `CS(=O)(=O)O.O=C([C@@H]1CCCN(c2ccc3[nH]c(C4(n5cc(Cl)cn5)CC4)nc3n2)C1)N1CCCC1` [PF-06424439], in test [1], the “extracellular acidification rate (ECAR)” value was “did not affect” and the “oxygen consumption rate (OCR)” value was “no reduction was observed”.
